Reference: ChEMBL document CHEMBL2429821, “A Casein kinase 1/Checkpoint kinase 1 pyrazolo-pyridine protein kinase inhibitor as novel activator of the p53 pathway” (Bioorg Med Chem Lett, 2013)
The source made the active and inactive calls. No cut-off for these calls is given here.

Columns and labels:
[1] = target: T1, Casein kinase I/MDM2 (Homo sapiens) (UniProt Q00987+P48729); experiment: Inhibition of CK1-MDM2 complex in human A375 cells assessed as increase in […] protein level at 0.2 to 40 uM after 24 hrs by immunoblotting analysis; type: cell-based; conditions: A-375
T1 sequence (P48729 whole entry, looked up): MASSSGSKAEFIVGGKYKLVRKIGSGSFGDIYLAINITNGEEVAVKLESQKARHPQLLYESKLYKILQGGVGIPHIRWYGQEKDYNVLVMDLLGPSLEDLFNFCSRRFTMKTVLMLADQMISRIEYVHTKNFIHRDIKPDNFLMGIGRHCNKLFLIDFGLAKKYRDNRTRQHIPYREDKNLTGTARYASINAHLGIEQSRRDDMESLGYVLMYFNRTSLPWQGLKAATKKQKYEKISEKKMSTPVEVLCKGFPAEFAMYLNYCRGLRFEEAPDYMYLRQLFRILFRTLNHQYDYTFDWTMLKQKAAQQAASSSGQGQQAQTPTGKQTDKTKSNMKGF
T1 sequence (Q00987 whole entry, looked up): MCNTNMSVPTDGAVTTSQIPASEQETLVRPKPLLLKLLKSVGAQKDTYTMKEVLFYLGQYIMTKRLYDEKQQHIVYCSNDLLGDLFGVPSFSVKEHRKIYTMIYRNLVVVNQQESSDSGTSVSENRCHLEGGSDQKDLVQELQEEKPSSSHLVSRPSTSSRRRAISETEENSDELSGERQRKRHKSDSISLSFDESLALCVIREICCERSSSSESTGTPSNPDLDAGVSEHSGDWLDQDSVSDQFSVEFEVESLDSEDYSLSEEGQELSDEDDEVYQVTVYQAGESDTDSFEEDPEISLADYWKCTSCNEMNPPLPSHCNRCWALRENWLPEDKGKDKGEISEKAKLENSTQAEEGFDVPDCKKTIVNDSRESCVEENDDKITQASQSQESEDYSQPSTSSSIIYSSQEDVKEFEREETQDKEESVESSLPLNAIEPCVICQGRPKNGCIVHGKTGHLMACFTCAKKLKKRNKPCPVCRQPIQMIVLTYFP

A-375 [2] = experiment: Cell cycle arrest in human A375 cells assessed as accumulation at S phase at 80 uM after 48 hrs by FACS flow cytometric analysis (reference value: 25.1%); type: functional
A-375 [3] = experiment: Cell cycle arrest in human A375 cells assessed as accumulation at sub-G1 phase at 80 uM after 48 hrs by FACS flow cytometric analysis (reference value: 2.17%); type: functional
A-375 [4] = experiment: Cell cycle arrest in human A375 cells assessed as accumulation at G0-G1 phase at 80 uM after 48 hrs by FACS flow cytometric analysis (reference value: 55.4%); type: functional
[5] = target: T1, Casein kinase I/MDM2 (Homo sapiens); experiment: Inhibition of CK1-MDM2 complex in human A375 cells assessed as increase in p53 protein level at 5 to 40 uM compound transfected into cells using attractene carrier after 48 hrs by immunoblotting analysis; type: cell-based; conditions: A-375
[6] = target: T1, Casein kinase I/MDM2 (Homo sapiens); experiment: Inhibition of CK1-MDM2 complex in human A375 cells assessed as decrease in E2F1 protein level after 48 hrs by immunoblotting analysis; type: cell-based; conditions: A-375
[7] = target: T1, Casein kinase I/MDM2 (Homo sapiens); experiment: Inhibition of CK1-MDM2 complex in human A375 cells assessed as effect on p21 protein level at 0.2 to 80 uM after 48 hrs by immunoblotting analysis; type: cell-based; conditions: A-375
[8] = target: T1, Casein kinase I/MDM2 (Homo sapiens); experiment: Inhibition of CK1-MDM2 complex in human A375 cells assessed as effect on MDM2 protein level at 0.2 to 80 uM after 48 hrs by immunoblotting analysis; type: cell-based; conditions: A-375
[9] = target: Mitogen-activated protein kinase 14 (Homo sapiens, UniProt Q16539); experiment: Inhibition of human p38alpha MAPK in presence of 50 uM ATP
Mitogen-activated protein kinase 14, sequence (Q16539 whole entry, canonical isoform): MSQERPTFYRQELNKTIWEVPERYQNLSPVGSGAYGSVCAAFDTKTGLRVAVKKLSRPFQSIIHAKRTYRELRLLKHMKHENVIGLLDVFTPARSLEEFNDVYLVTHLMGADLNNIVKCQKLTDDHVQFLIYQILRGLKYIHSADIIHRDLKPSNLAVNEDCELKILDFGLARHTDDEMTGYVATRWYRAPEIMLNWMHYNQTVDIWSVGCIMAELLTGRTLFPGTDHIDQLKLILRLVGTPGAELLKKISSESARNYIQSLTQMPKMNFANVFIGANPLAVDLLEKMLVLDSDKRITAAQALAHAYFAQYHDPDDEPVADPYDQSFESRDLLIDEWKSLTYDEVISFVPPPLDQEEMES

[10] = target: Casein kinase I isoform delta (Rattus norvegicus, UniProt Q06486); experiment: Inhibition of rat CK1delta in presence of 20 uM ATP
Casein kinase I isoform delta, sequence (Q06486 whole entry, canonical isoform): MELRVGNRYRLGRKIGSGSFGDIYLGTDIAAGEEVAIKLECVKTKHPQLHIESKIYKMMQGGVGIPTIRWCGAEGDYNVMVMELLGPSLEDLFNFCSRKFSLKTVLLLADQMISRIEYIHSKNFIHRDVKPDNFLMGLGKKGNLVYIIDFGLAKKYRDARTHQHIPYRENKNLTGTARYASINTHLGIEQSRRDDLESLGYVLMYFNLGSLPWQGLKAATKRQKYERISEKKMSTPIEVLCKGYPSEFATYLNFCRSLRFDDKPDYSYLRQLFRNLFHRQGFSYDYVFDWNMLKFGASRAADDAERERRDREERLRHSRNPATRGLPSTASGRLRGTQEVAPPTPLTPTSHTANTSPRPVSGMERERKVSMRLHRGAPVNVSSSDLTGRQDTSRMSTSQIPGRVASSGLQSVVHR

[11] = target: T2, Serine/threonine-protein kinase Chk1 (Homo sapiens, UniProt O14757); experiment: Inhibition of human CHK1 in presence of 20 uM ATP
T2 sequence (O14757 whole entry): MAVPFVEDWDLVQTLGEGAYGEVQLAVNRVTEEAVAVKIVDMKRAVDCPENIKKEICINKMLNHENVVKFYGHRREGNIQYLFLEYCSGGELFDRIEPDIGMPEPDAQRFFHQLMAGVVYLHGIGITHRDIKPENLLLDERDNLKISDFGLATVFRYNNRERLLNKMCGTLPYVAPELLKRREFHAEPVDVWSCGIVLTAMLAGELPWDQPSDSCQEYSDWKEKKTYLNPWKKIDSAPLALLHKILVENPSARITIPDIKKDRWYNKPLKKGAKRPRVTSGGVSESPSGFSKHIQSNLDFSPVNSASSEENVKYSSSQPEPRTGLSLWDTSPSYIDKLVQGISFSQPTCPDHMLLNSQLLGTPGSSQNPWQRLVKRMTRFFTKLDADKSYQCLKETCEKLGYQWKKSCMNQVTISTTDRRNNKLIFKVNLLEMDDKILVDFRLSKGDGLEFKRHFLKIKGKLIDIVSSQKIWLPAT

[12] = target: T3, Mitogen-activated protein kinase 12 (Homo sapiens) (UniProt P53778); experiment: Inhibition of human p38gamma MAPK assessed as residual activity at 1 uM relative to control
T3 sequence (whole entry): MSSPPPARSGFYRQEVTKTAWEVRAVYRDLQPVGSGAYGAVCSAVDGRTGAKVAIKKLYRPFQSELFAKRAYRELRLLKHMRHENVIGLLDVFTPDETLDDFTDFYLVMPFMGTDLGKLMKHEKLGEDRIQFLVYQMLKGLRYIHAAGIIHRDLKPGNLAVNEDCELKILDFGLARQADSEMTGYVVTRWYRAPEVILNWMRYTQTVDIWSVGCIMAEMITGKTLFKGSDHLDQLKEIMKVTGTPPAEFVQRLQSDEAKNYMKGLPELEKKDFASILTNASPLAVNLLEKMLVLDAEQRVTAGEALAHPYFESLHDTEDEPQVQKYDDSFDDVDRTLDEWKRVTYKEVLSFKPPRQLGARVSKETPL

[13] = target: Serine/threonine-protein kinase pim-2 (Homo sapiens) (UniProt Q9P1W9); experiment: Inhibition of human PIM2 assessed as residual activity at 1 uM relative to control
Serine/threonine-protein kinase pim-2 (Homo sapiens), sequence (Q9P1W9 whole entry, looked up): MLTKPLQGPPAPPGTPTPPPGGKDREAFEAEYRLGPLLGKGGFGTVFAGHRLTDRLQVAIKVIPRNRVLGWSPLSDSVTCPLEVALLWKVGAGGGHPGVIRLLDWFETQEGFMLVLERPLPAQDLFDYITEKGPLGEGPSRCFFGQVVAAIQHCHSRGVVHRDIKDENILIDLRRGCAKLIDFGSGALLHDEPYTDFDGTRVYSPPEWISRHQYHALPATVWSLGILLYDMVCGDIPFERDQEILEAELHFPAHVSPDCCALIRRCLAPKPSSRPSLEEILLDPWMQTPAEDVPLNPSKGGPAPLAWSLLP

[14] = target: Mitogen-activated protein kinase 1 (Homo sapiens) (UniProt P28482); experiment: Inhibition of human MAPK2 assessed as residual activity at 1 uM relative to control
Mitogen-activated protein kinase 1 (Homo sapiens), sequence (P28482 whole entry): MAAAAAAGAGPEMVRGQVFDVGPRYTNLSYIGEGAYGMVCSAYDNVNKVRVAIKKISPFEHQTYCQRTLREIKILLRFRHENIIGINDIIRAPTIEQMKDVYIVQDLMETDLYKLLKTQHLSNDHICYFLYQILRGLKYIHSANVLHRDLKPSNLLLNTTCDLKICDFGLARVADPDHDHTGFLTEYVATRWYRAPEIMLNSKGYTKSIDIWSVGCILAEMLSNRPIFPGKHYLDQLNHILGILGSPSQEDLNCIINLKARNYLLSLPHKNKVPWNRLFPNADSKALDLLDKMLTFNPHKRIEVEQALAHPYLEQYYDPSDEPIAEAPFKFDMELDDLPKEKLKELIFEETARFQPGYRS

[15] = target: T3, Mitogen-activated protein kinase 12 (Homo sapiens); experiment: Inhibition of human p38gamma MAPK assessed as residual activity at 10 uM relative to control
[16] = target: Serine/threonine-protein kinase pim-2 (Homo sapiens) (UniProt Q9P1W9); experiment: Inhibition of human PIM2 assessed as residual activity at 10 uM relative to control
[17] = target: MAP kinase-activated protein kinase 2 (Homo sapiens) (UniProt P49137); experiment: Inhibition of human MAPKAPK2 assessed as residual activity at 10 uM relative to control
MAP kinase-activated protein kinase 2 (Homo sapiens), sequence (P49137 whole entry, looked up): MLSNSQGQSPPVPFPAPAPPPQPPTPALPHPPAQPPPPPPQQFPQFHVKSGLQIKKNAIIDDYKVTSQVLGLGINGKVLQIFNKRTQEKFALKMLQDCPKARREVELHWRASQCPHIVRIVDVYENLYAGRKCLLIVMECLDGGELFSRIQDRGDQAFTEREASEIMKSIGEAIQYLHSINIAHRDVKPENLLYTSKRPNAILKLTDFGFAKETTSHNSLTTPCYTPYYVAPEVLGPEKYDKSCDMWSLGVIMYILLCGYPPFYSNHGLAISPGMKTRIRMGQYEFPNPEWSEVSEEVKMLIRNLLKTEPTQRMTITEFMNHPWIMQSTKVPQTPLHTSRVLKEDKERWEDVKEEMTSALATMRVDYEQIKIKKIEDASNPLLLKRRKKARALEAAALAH

[18] = target: Mitogen-activated protein kinase 1 (Homo sapiens) (UniProt P28482); experiment: Inhibition of human MAPK2 assessed as residual activity at 10 uM relative to control
Homo sapiens = species on record: Homo sapiens; experiment: Inhibition of human VEGFR assessed as residual activity at 10 uM relative to control
[19] = target: T1, Casein kinase I/MDM2 (Homo sapiens); experiment: Inhibition of CK1-MDM2 complex in human A375 cells assessed as decrease in […] protein level at 0.2 to 5 uM after 48 hrs by immunoblotting analysis; type: cell-based; conditions: A-375
[20] = target: T1, Casein kinase I/MDM2 (Homo sapiens); experiment: Inhibition of CK1-MDM2 complex in human A375 cells assessed as increase in p53 protein level at 0.2 to 5 uM after 48 hrs by immunoblotting analysis; type: cell-based; conditions: A-375
A-375 [21] = experiment: Cell cycle arrest in human A375 cells assessed as accumulation at S phase at 40 uM after 48 hrs by FACS flow cytometric analysis (reference value: 25.1%); type: functional
A-375 [22] = experiment: Cell cycle arrest in human A375 cells assessed as accumulation at G0-G1 phase at 40 uM after 48 hrs by FACS flow cytometric analysis (reference value: 55.4%); type: functional
A-375 [23] = experiment: Cell cycle arrest in human A375 cells assessed as accumulation at sub-G1 phase at 10 uM after 48 hrs by FACS flow cytometric analysis (reference value: 2.17%); type: functional
A-375 [24] = experiment: Cell cycle arrest in human A375 cells assessed as accumulation at sub-G1 phase at 5 uM after 48 hrs by FACS flow cytometric analysis (reference value: 2.17%); type: functional
A-375 [25] = experiment: Cell cycle arrest in human A375 cells assessed as accumulation at G2-M phase at 1 uM after 48 hrs by FACS flow cytometric analysis (reference value: 17.3%); type: functional
HCT-116 = experiment: Cytotoxicity against human HCT116 cells expressing p53 assessed as cell viability at 1 to 32 uM after 24 hrs by MTT assay; type: functional, cell-based
A-375 [26] = experiment: Cytotoxicity against human A375 cells assessed as cell viability after 24 hrs by MTT assay; type: functional, cell-based; conditions: A-375, 24 h
[27] = target: Serine/threonine-protein kinase Nek2 (Homo sapiens, UniProt P51955); experiment: Inhibition of human NEK2alpha in presence of 50 uM ATP
Serine/threonine-protein kinase Nek2, sequence (P51955 whole entry): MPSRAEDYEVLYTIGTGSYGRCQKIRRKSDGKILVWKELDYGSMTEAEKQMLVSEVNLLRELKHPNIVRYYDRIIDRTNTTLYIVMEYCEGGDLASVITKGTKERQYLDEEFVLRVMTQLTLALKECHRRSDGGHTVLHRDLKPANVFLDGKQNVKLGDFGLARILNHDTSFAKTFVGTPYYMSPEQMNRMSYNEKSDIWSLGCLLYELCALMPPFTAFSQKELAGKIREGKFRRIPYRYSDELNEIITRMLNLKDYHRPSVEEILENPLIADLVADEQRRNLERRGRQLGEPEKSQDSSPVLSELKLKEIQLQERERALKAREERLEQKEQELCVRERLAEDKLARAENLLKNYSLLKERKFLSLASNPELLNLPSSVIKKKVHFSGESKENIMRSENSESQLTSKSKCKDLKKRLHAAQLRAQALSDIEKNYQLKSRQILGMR

Structure (SMILES)	Activity (A-375 [2])	Activity (A-375 [3])	Activity (A-375 [4])	IC50 [10]	Activity [12]	Activity [13]	Activity [14]	Activity [15]	Activity [16]	Activity [17]	Activity [18]	Activity (Homo sapiens)	other results
CCCC(=O)Nc1n[nH]c2ncc(-c3cccnc3)cc12													inhibition [1]: Active
CC(=O)Nc1nccc(-c2c(-c3ccccc3)noc2C)n1	21.9%	3.32%	58.5%	838 nM	97.1%	119%	106%	93%	103%	124%	93%	50.8%	inhibition [5]: inactive; inhibition [6]: Dose-dependent effect; inhibition [7]: inactive; inhibition [8]: inactive; IC50 ([9]; read-out: IC50): 2040 nM; IC50 [11]: Not Active
CC(=O)Nc1cccc(-c2cnc3[nH]nc(C)c3c2)c1	11.6%	45.7%	5.36%	893 nM	117%	79%	91.7%	95.6%	58.7%	96.4%	82.7%	20.3%	inhibition [19]: Active; inhibition [20]: Active; Activity (A-375 [21]): 14%; Activity (A-375 [22]): 16.9%; Activity (A-375 [23]): 34.3%; Activity (A-375 [24]): 19.1%; Activity (A-375 [25]): 17.8%; Activity (HCT-116): Active; IC50 (A-375 [26]): 8000 nM; IC50 [9]: Not Active; IC50 ([11]; read-out: IC50): 232 nM; IC50 [27]: 2000 nM
